Reference: patent US20230287416A1, “COMBINATORY TREATMENT OF SMA WITH SARNA AND MRNA MODULATORS” (RACTIGEN THERAPEUTICS, priority 2020, published 2023)

Test system: SMN2 mRNA
Assay: RT-qPCR of SMN2FL and SMN2 Δ7 mRNA in brain, liver and spinal cord of SMA type III mice
Assay type: in vivo, mouse
Description: The combinatory effect of LNP-R6-04M1 with LNP-ASO-10-27 or with Risdiplam were in evaluated in vivo, in SMA type IU mice. Neonatal mice were divided into 10 treatment groups: • Treatment Group 1: administration of LNP-R6-04M1 via ICV injection (injected twice on P1 and P3 respectively, each with 10 ug of LNP-R6-04M1); • Treatment Group 2: administration of LNP-ASO-10-27 via ICV injection (injected twice on P1 and P3 respectively, each with 10 ug of LNP-ASO-10-27); • Treatment Group 3: administration of Risdiplam via IP injection on P1 at a concentration of 0.3 mg/kg; • Treatment Group 4: administration of Risdiplam via IP injection on P1 at a concentration of 1 mg/kg; • Treatment Group 5: administration of Risdiplam via IP injection on P1 at a concentration of 3 mg/kg; • Treatment Group 6: combinatory treatment via administration of LNP-R6-04M1 and LNP-ASO-10-27. LNP-R6-04M1 was administered via ICV injection on P1 (10 ug), while LNP-ASO-10-27 was administered via ICV injection on P3 (10 ug); • Treatment Group 7: combinatory treatment via administration of LNP-ASO-10-27 and LNP-R6-04M1. LNP-ASO-10-27 was administered via ICV injection on P1 (10 ug), while LNP-R6-04M1 was administered via ICV injection on P3 (10 ug); • Treatment Group 8: combinatory treatment of LNP-R6-04M1 and Risdiplam. LNP-R6-04M1 was injected on P1 (10 ug) via ICV injection, and Risdiplam was injected via IP injection on P3 at a concentration of 0.3 mg/kg; • Treatment Group 9: combinatory treatment of LNP-R6-04M1 and Risdiplam. LNP-R6-04M1 was injected on P1 (10 ug) via ICV injection, and Risdiplam was injected via IP injection on P3 at a concentration of 1 mg/kg;
The SMA type LII mice were treated saline twice on P1 (5 μL) and P3(5 μL) via subcutaneous (SC) injection. P1 and P3 means postnatal day 1 and day3;
Treatment Group 10: treatment of mice with saline SMN2FL and SMN2 Δ7 mRNA levels were quantified by RT-qPCR in tissues of the brain, liver and spinal cord.
For RNA isolation from cultured cells, total cellular RNA was isolated from treated cells using an RNeasy Plus Mini kit (Qiagen, Hilden, Germany) according to its manual. To isolated RNA from animal tissues, tissues were harvested and stored at RNA later (AM7021, Thermo Fisher). Total RNA was then isolated using MagPure Total RNA Micro LQ kit (Magen, R6621, China) by auto-pure96 machine (ALLSHENG, China). The resultant RNA (1 μg) was reverse transcribed into cDNA by using a PrimeScript RT kit containing gDNA Eraser (Takara, Shlga, Japan). The resultant cDNA was amplified in an ABI 7500 Fast Real-time PCR System (Applied Biosystems; Foster City, Calif.) using SYBR Premix Ex Taq 11 (Takara, Shlga, Japan) reagents and primers which specifically amplified full-length (SMN2FL) or A7 SMN2 mRNA (SMN2 Δ7) (FIG. 1). The reaction conditions were: 95° C. for 3 seconds (1 cycle) and 60° C. for 30 seconds (40 cycles). Amplification of TBP gene served as an internal control.
All animal procedures were conducted by certified laboratory personnel using protocols consistent with local and state regulations and approved by the Institutional Animal Care and Use Committee. SMA-like mice created by homozygous knock-out of mouse Smn exon 7 with transgene of human SMN2 (Smn−/−SMN2+/−) as previously described Hsieh-Li et al. (Hsieh-Li, H. M., et al. A mouse model for spinal muscular atrophy. Nature Genet (2000) were obtained from Jackson Laboratories. Tail snips were gathered at postnatal day 0 (P0), and each pup was identified by paw tattooing and genotyped by PCR analysis using a set of 3 specific primers: S1, 5′-[…]-3′, and S2, 5′-[…]-3′ (1,150 bp band for wild type alleles) and S1 and H1, 5′-[…]-3′ (950 bp band for mutant alleles). The PCR products were detected by 1% agarose gel. Severe SMA mice (Smn^−/−, SMN^+/0) were generated. Littermates heterozygous for mouse Smn (Smn1^+/−, SMN2^+/−) were used as controls. […]

[1] = brain, IP on P1, 0.3 mg/kg (Treatment Group 3)
[2] = brain, IP on P1, 1 mg/kg (Treatment Group 4)
[3] = brain, IP on P1, 3 mg/kg (Treatment Group 5)
[4] = liver, IP on P1, 0.3 mg/kg (Treatment Group 3)
[5] = liver, IP on P1, 1 mg/kg (Treatment Group 4)
[6] = liver, IP on P1, 3 mg/kg (Treatment Group 5)

For `Cc1cn2nc(-c3cc(=O)n4cc(N5CCNC6(CC6)C5)ccc4n3)cc(C)c2n1` [Risdiplam], the “SMN2FL mRNA expression, fold relative to control” value [1] was 1.1 fold, the “SMN2 Δ7 mRNA expression, fold relative to control” value [1] was 1.0 fold and the “SMN2FL mRNA expression, fold relative to control” value [2] was 1.3 fold. For the same molecule, the “SMN2 Δ7 mRNA expression, fold relative to control” value [2] was 1.0 fold, the “SMN2FL mRNA expression, fold relative to control” value [3] was 1.0 fold and the “SMN2 Δ7 mRNA expression, fold relative to control” value [3] was 1.0 fold. For the same molecule, the “SMN2FL mRNA expression, fold relative to control” value [4] was 1.1 fold, the “SMN2 Δ7 mRNA expression, fold relative to control” value [4] was 1.0 fold and the “SMN2FL mRNA expression, fold relative to control” value [5] was 1.5 fold. For the same molecule, the “SMN2 Δ7 mRNA expression, fold relative to control” value [5] was 0.9 fold, the “SMN2FL mRNA expression, fold relative to control” value [6] was 1.0 fold and the “SMN2 Δ7 mRNA expression, fold relative to control” value [6] was 1.0 fold.
